13 compounds from patent US10130630B2, “BTK inhibitors” (MERCK SHARP & DOHME CORP., priority 2014, dated 2018) can be followed below.

Like-named read-outs stand apart in the source and are kept apart here.

Assay [1] has as its target T1, BTK enzyme (full-length BTK, hBTK) (Homo sapiens, UniProt Q06187).
T1 construct: recombinant protein from baculovirus-transfected Sf9 cells: full-length BTK, 6HIS-tag cleaved; 6HIS (cleaved yes); made in house; host or cells: baculovirus-transfected Sf9 cells
Kind of assay: Btk enzyme activity assay (LANCE TR-FRET). The assay is classed as biochemical. The conditions noted are these: 50 pM hBTK, 25 μM ATP, 60 minute compound and enzyme incubation, read-out: BTK binding IC50. On the procedure: BTK enzymatic activity was determined with the LANCE (Lanthanide Chelate Excite) TR-FRET (Time-resolved fluorescence resonance energy transfer) assay. […] To each well of a black non-binding surface Corning 384-well microplate (Corning Catalog #3820), 5 nL of compound (2000 fold dilution in final assay volume of 10 μL) was dispensed, followed by the addition of 7.5 μL of 1× kinase buffer (50 mM Hepes 7.5, 10 mM MgCl2, 0.01% Brij-35, 1 mM EGTA, 0.05% BSA & 1 mM DTT) containing 5.09 pg/μL (66.67 pM) of BTK enzyme (recombinant protein from baculovirus-transfected Sf9 cells: full-length BTK, 6HIS-tag cleaved). Following a 60 minute compound and enzyme incubation, each reaction was initiated by the addition of 2.5 μL 1× kinase buffer containing 8 μM biotinylated “A5” peptide (Biotin-[…]-NH2) (SEQ.ID.NO.: 1), and 100 μM ATP. The final reaction in each well of 10 μL consists of 50 pM hBTK, 2 μM biotin-A5-peptide, and 25 μM ATP. Phosphorylation reactions were allowed to proceed for 120 minutes. Reactions were immediately quenched by the addition of 20 uL of 1× quench buffer (15 mM EDTA, 25 mM Hepes 7.3, and 0.1% Triton X-100) containing detection reagents (0.626 nM of LANCE-Eu-W1024-anti-phosphoTyrosine antibody, PerkinElmer and 86.8 nM of Streptavidin-conjugated Dylight 650, Dyomics/ThermoFisher Scientific). After 60 minutes incubation with detection reagents, reaction plates were read on a PerkinElmer EnVision plate reader using standard TR-FRET protocol. Briefly, excitation of donor molecules (Eu-chelate:anti-phospho-antibody) with a laser light source at 337 nm produces energy that can be transferred to Dylight-650 acceptor molecules if this donor:acceptor pair is within close proximity. Fluorescence intensity at both 665 nm (acceptor) and 615 nm (donor) are measured and a TR-FRET ratio calculated for each well (acceptor intensity/donor intensity). IC50 values were determined by 4 parameter robust fit of TR-FRET ratio values vs. (Log10) compound concentrations.
The following Table 2 provides specific IC50 values for all the examples. The IC50 values set forth below were determined according to Assay method described above.
(In general: Time-resolved FRET reads energy transfer from a long-lived donor to a nearby acceptor.)

Assay [2] concerns adenosine uptake into HeLa cells. As to the kind of experiment: [3H]Adenosine uptake assay in HeLa cells. The assay is classed as cell-based. To be noted: 60 minutes uptake, read-out: ADU inhibition IC50 (adenosine uptake inhibition potency). How it is done: Compounds were also screened in an adenosine uptake functional cellular assay using the protocol described below.
Adenosine uptake activity was determined by monitoring the accumulation of tritiated adenosine into HeLa cells (ATCC catalog # CCL-2) using a PMT-based radiometric detection instrument. In this assay, the potency (IC50) of each compound was determined from a ten point (1:3 serial dilution; final compound concentration range in assay from 10 μM to 0.032 nM) titration curve using the following outlined procedure. To each well of a 96-well CytoStar-T scintillating microplate (Perkin Elmer Catalog # RPNQ0163), 25 000 HeLa cells in 100 μL of growth medium comprising: Minimum Essential Media (Life Technologies Catalog # 11095-080)+10% (v/v) foetal bovine serum (FBS; Sigma Aldrich Catalog # F2442) was added. These cells were incubated overnight at 37° C. in a humidified atmosphere with 5% (v/v) CO2. After this time the growth medium was removed and replaced with 40 μL assay medium comprising: Hanks balanced salts solution (HBSS; Thermo Fisher Catalog # SH30268.01)+5% (v/v) FBS. Compound stock solutions in DMSO were diluted in assay medium to 2.5× final compound concentration maintaining a constant DMSO concentration of 0.25% (v/v). 40 μL of compound in assay medium was dispensed into individual wells of the Cytostar-T plates and the plates were incubated for 30 minutes under ambient laboratory conditions. Following this incubation, 20 μL of 500 nM [^3H]adenosine (American Radiolabeled Chemicals Inc. Catalog # ART0287) in assay medium was added and incubated for a further 60 minutes under ambient laboratory conditions. The amount of radiolabel accumulation was then determined using a Perkin Elmer Topcount NXT microplate reader. In brief, HeLa cells adhere to the bottom of the Cytostar-T plate, uptake of [^3H]adenosine into these cells brings the radiolabel into sufficient proximity to excite the scintillant in the base of the plates. These events are captured by single PMT, time-resolved coincidence counting. IC50 values were determined by 4 parameter robust fit of counts per second values vs. (Log10) compound concentrations.

T1 sequence (Q06187 whole entry): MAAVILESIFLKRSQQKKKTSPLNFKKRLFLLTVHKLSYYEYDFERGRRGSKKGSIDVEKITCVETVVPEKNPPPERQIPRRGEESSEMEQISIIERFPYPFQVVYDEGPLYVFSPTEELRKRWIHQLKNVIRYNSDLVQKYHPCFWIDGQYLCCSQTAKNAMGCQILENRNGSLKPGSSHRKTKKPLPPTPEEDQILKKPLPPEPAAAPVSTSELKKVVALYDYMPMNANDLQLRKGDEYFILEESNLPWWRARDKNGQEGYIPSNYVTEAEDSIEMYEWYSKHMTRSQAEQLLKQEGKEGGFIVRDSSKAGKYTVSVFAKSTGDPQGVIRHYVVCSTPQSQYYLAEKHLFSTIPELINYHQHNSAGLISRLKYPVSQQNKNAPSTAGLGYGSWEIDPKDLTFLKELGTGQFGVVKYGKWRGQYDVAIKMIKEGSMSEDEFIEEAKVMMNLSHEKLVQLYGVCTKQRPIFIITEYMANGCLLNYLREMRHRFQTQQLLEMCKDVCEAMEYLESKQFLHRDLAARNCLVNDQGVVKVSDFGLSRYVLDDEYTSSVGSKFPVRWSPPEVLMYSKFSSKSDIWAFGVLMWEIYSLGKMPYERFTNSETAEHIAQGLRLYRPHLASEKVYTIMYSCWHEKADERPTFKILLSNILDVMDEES

In general, IC50 refers to the concentration that inhibits the measured activity by half. Regarding `CCOc1cc(C(=O)Nc2cc(C(F)(F)F)ccn2)ccc1-c1nc([C@@H]2CC[C@H]3CNC4(CCC4)C(=O)N3C2)n2ccnc(N)c12` [Compound 17, 4-{8-amino-3-[(7′R,9a′S)-4′-oxohexahydro-2′H-spiro[cyclobutane-1,3′-pyrido[1,2-a]pyrazin]-7′-yl]imidazo[1,5-a]pyrazin-1-yl}-3-ethoxy-N-[4-(trifluoromethyl)pyridin-2-yl]benzamide], the IC50 in assay [1] stood at 0.501 nM; in assay [2] (Homo sapiens, HeLa) it was 1700 nM.

As for `CCOc1cc(C(=O)Nc2cc(C(F)(F)F)ccn2)ccc1-c1nc([C@@H]2CC[C@@H]3N(C2)C(=O)CC32CC2)n2ccnc(N)c12` [Compound 18, 4-{8-amino-3-[(6′R,8a′S)-3′-oxohexahydro-5′H-spiro[cyclopropane-1,1′-indolizin]-6′-yl]imidazo[1,5-a]pyrazin-1-yl}-3-ethoxy-N-[4-(trifluoromethyl)pyridin-2-yl]benzamide], the IC50 in assay [1] came to 0.127 nM; in assay [2] (Homo sapiens, HeLa) it was 1110 nM.

Turning to `CCOc1cc(C(=O)Nc2cc(C(F)(F)F)ccn2)ccc1-c1nc([C@H]2CC[C@H]3N(C2)C(=O)CC32CC2)n2ccnc(N)c12` [Compound 19, 4-{8-amino-3-[(6′S,8a′R)-3′-oxohexahydro-5′H-spiro[cyclopropane-1,1′-indolizin]-6′-yl]imidazo[1,5-a]pyrazin-1-yl}-3-ethoxy-N-[4-(trifluoromethyl)pyridin-2-yl]benzamide], the half-inhibitory concentration (IC50) was found to be 3.81 nM in assay [1] and 613 nM in assay [2] (Homo sapiens, HeLa).

As for `CCOc1cc(C(=O)Nc2cc(C(F)(F)F)ccn2)cc(F)c1-c1nc([C@@H]2CC[C@@H]3N(C2)C(=O)CC32CC2)n2ccnc(N)c12` [Compound 20, 4-{8-amino-3-[(6′R,8a′S)-3′-oxohexahydro-5′H-spiro[cyclopropane-1,1′-indolizin]-6′-yl]imidazo[1,5-a]pyrazin-1-yl}-3-ethoxy-5-fluoro-N-[4-(trifluoromethyl)pyridin-2-yl]benzamide], the IC50 in assay [1] worked out at 0.171 nM; in assay [2] (Homo sapiens, HeLa), 871 nM.

Regarding `CCOc1cc(C(=O)Nc2cc(C3CC3)ccn2)cc(F)c1-c1nc([C@@H]2CC[C@@H]3N(C2)C(=O)CC32CC2)n2ccnc(N)c12` [Compound 21, 4-{8-amino-3-[(6′R,8a′S)-3′-oxohexahydro-5′H-spiro[cyclopropane-1,1′-indolizin]-6′-yl]imidazo[1,5-a]pyrazin-1-yl}-N-(4-cyclopropylpyridin-2-yl)-3-ethoxy-5-fluorobenzamide], the half-inhibitory concentration (IC50) in assay [1] amounted to 0.16 nM; in assay [2] (Homo sapiens, HeLa), 1060 nM.

For the compound `CCOc1cc(C(=O)Nc2cc(C(F)(F)F)n(C)n2)cc(F)c1-c1nc(C2CCC3N(C2)C(=O)CC32CC2)n2c(F)cnc(N)c12` (centres unmarked) [Compound 22, 4-[8-amino-5-fluoro-3-(3′-oxohexahydro-5′H-spiro[cyclopropane-1,1′-indolizin]-6′-yl)imidazo[1,5-a]pyrazin-1-yl]-3-ethoxy-5-fluoro-N-[1-methyl-5-(trifluoromethyl)-1H-pyrazol-3-yl]benzamide], the 50% inhibitory concentration (IC50) in assay [1] was 0.269 nM; in assay [2] (Homo sapiens, HeLa), 1430 nM.

In the case of `CCOc1cc(C(=O)Nc2cc(C(F)(F)F)n(C)n2)cc(F)c1-c1nc(C2CCC3N(C2)C(=O)CC32CC2)n2c(F)cnc(N)c12` (centres unmarked) [Compound 23, 4-[8-amino-5-fluoro-3-(3′-oxohexahydro-5′H-spiro[cyclopropane-1,1′-indolizin]-6′-yl)imidazo[1,5-a]pyrazin-1-yl]-3-ethoxy-5-fluoro-N-[1-methyl-5-(trifluoromethyl)-1H-pyrazol-3-yl]benzamide], the IC50 stood at 5.9 nM in assay [1] and 2090 nM in assay [2].

For `CCOc1cc(C(=O)Nc2cc(C(F)(F)F)ccn2)ccc1-c1nc([C@@H]2CC[C@@H]3N(C2)C(=O)C2(CC2)C3(F)F)n2ccnc(N)c12` [Compound 27, 4-{8-amino-3-[(6′R,8a′S)-1′,1′-difluoro-3′-oxohexahydrospiro[cyclopropane-1,2′-indolizin]-6′-yl]imidazo[1,5-a]pyrazin-1-yl}-3-ethoxy-N-[4-(trifluoromethyl)pyridin-2-yl]benzamide], the 50% inhibitory concentration (IC50) in assay [1] came out at 1.6 nM; in assay [2] (Homo sapiens, HeLa) it was 1140 nM.

Regarding `CCOc1cc(C(=O)Nc2cc(C(F)(F)F)ccn2)cc(F)c1-c1nc([C@@H]2CC[C@@H]3N(C2)C(=O)C2(CC2)C3(F)F)n2ccnc(N)c12` [Compound 28, 4-{8-amino-3-[(6′R,8a′S)-1′,1′-difluoro-3′-oxohexahydrospiro[cyclopropane-1,2′-indolizin]-6′-yl]imidazo[1,5-a]pyrazin-1-yl}-3-ethoxy-5-fluoro-N-[4-(trifluoromethyl)pyridin-2-yl]benzamide], the 50% inhibitory concentration (IC50) in assay [1] came out at 1.54 nM; in assay [2] (Homo sapiens, HeLa), 1950 nM.

`COc1cc(C(=O)Nc2cc(C(F)(F)F)ccn2)ccc1-c1nc([C@H]2CC[C@H]3N(C2)C(=O)C2(CC2)C3(F)F)n2ccnc(N)c12` [Compound 29, 4-{8-amino-3-[(6′S,8a′R)-1′,1′-difluoro-3′-oxohexahydrospiro[cyclopropane-1,2′-indolizin]-6′-yl]imidazo[1,5-a]pyrazin-1-yl}-3-methoxy-N-[4-(trifluoromethyl)pyridin-2-yl]benzamide]: the IC50 in assay [1] was determined as 1.51 nM; in assay [2] (Homo sapiens, HeLa), 672 nM.

As to `COc1cc(C(=O)Nc2cc(C(F)(F)F)ccn2)cc(F)c1-c1nc([C@@H]2CC[C@@H]3N(C2)C(=O)C2(CC2)C3(F)F)n2ccnc(N)c12` [Compound 30, 4-{8-amino-3-[(6′R,8a′S)-1′,1′-difluoro-3′-oxohexahydrospiro[cyclopropane-1,2′-indolizin]-6′-yl]imidazo[1,5-a]pyrazin-1-yl}-3-fluoro-5-methoxy-N-[4-(trifluoromethyl)pyridin-2-yl]benzamide], the IC50 in assay [1] was 1.61 nM; in assay [2] (Homo sapiens, HeLa), 1070 nM.

With `Nc1nccn2c([C@H]3CC[C@H]4N(C3)C(=O)C3(CC3)C4(F)F)nc(-c3ccc(C(=O)Nc4cc(C(F)(F)F)ccn4)cc3)c12` [Compound 31, 4-{8-amino-3-[(6′S,8a′R)-1′,1′-difluoro-3′-oxohexahydrospiro[cyclopropane-1,2′-indolizin]-6′-yl]imidazo[1,5-a]pyrazin-1-yl}-N-[4-(trifluoromethyl)pyridin-2-yl]benzamide], the IC50 in assay [1] stood at 0.41 nM; in assay [2] (Homo sapiens, HeLa), 144 nM.

As for `CCOc1cc(C(=O)Nc2cc(C(F)(F)F)n(C)n2)ccc1-c1nc([C@@H]2CC[C@@H]3N(C2)C(=O)C2(CC2)C3(F)F)n2ccnc(N)c12` [Compound 32, 4-{8-amino-3-[(6′R,8a′S)-1′,1′-difluoro-3′-oxohexahydrospiro[cyclopropane-1,2′-indolizin]-6′-yl]imidazo[1,5-a]pyrazin-1-yl}-3-ethoxy-N-[1-methyl-5-(trifluoromethyl)-1H-pyrazol-3-yl]benzamide], the 50% inhibitory concentration (IC50) in assay [1] came to 6.22 nM; in assay [2] (Homo sapiens, HeLa), 2950 nM.
